pIC50, pKd: −log10 of the molar value. Calls of active or inactive are those of the source. The calls are words filed in the database; no cut-off is given here.

In one series the test system is Mus musculus. Put plainly: Cognitive enhancing effect in mouse model of scopolamine-induced memory impairment assessed as reduction in escape latency time at 8 to 12 mg/kg, IG QD for 3 days by channel water maze test. The format is functional, organism-based. The conditions noted are these: dose 8-12 mg/kg, time 3.0 day.
Take `COc1cc2c(cc1OC)C(=O)C(CC1CCN(Cc3ccccc3)CC1)C2` (stereo not given): the result was Active.

In another series the target is T1, Acetylcholinesterase (Rattus norvegicus) (UniProt P37136).
T1 sequence (whole entry): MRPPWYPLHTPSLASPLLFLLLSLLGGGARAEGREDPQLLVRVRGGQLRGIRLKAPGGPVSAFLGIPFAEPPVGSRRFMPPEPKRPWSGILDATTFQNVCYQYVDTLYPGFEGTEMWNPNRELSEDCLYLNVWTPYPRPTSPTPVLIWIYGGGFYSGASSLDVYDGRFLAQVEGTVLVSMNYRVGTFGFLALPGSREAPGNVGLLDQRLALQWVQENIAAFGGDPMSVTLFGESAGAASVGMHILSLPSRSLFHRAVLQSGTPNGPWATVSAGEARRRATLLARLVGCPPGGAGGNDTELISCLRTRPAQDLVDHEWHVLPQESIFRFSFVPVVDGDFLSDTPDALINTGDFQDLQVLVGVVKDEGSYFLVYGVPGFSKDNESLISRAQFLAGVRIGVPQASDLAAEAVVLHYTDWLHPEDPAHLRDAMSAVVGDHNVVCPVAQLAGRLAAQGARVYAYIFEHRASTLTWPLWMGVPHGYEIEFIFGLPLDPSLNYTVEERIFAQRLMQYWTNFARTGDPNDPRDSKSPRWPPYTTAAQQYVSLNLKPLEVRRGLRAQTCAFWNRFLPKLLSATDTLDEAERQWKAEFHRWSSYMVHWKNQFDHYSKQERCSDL
Put plainly: Inhibition of rat cortex homogenate acetylcholinesterase at 40 uM using acetylthiocholine iodide as substrate incubated for 20 mins by Ellman's method relative to control.
Settings: not given
It counts as tissue-based.
`COc1cc2c(cc1OC)C(=O)C(CC1(F)CCN(CCc3ccccc3F)CC1)C2` (stereo not given) displayed an inhibition of 74.7%.
For the molecule `COc1cc2c(cc1OC)C(=O)C(CC1(F)CCN(Cc3ccc(OC(F)(F)F)cc3)CC1)C2` (stereo not given), the inhibition came to 51.7%.
On the same count and under the same terms, then `COc1cc2c(cc1OCC1CC1)C(=O)C(CC1(F)CCN(Cc3ccccc3F)CC1)C2` (stereo not given), with 8.4%; and `COc1cc2c(cc1OC)C(=O)C(CC1(F)CCN(Cc3ccc(C(C)(C)C)cc3)CC1)C2` (stereo not given), with 69.1%; and `COc1cc2c(cc1OC)C(=O)C(CC1(F)CCN(Cc3ccc(C(F)(F)F)cc3)CC1)C2` (stereo not given), with 75.3%.

The test system of a further series is Mus musculus. Put plainly: Cognitive enhancing effect in mouse model of scopolamine-induced memory impairment assessed as reduction in number of errors at 8 to 12 mg/kg, IG QD for 3 days by channel water maze test. It counts as functional, organism-based. The conditions noted are these: dose 8-12 mg/kg, time 3.0 day.
On to `COc1cc2c(cc1OC)C(=O)C(CC1CCN(Cc3ccccc3)CC1)C2` (stereo not given), for which the outcome was Active.

Tested on in a further series: not listed separately
Put plainly: Solubility of the compound. It counts as physicochemical.
Settings: not given
Regarding `COc1cc2c(cc1OC)C(=O)C(CC1(F)CCN(Cc3c(F)c(F)c(F)c(F)c3F)CC1)C2` (stereo not given), the solubility entry is recorded as “Insoluble”.

The target of the next series is Acetylcholinesterase (Homo sapiens, UniProt P22303). The experiment in a line: Binding affinity to CM5 sensor chip immobilized recombinant human AChE assessed as dissociation constant at 298.15 K by surface plasmon resonance assay.
Sequence of Acetylcholinesterase (Homo sapiens, UniProt P22303) (P22303 whole entry): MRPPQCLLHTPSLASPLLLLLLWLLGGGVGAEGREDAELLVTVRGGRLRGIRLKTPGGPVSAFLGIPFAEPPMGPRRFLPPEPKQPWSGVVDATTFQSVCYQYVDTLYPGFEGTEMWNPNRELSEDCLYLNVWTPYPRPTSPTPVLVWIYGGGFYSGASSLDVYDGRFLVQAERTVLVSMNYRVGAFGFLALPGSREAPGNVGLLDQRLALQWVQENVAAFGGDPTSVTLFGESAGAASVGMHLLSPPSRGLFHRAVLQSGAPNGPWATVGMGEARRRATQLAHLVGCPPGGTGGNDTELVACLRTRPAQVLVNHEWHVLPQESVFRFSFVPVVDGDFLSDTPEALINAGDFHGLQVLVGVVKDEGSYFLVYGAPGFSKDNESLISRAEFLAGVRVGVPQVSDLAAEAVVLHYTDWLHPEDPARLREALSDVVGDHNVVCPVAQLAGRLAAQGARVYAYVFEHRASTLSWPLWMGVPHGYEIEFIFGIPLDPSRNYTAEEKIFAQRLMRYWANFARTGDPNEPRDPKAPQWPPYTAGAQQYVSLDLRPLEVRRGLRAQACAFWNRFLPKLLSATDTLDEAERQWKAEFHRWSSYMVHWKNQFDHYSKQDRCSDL
Settings: not given
Consider `COc1cc2c(cc1OC)C(=O)C(CC1(F)CCN(Cc3ccccc3)CC1)C2` (stereo not given), for which the pKd is 8.34.
With `COc1cc2c(cc1OC)C(=O)C(CC1(F)CCN(Cc3cc(F)c(F)cc3F)CC1)C2` (stereo not given), the pKd was 8.28.
The same measure, in the same setting: the same measure for `COc1cc2c(cc1OC)C(=O)C(CC1(F)CCN(Cc3ccc(F)cc3)CC1)C2` (stereo not given): 8.56; for `C/C=C1\[C@H]2C=C(C)C[C@]1(N)c1ccc(=O)[nH]c1C2` [HUPERZINE A]: 7.77.
Same read-out and setting: then `COc1cc2c(cc1OC)C(=O)C(CC1(F)CCN(Cc3cccc(F)c3)CC1)C2` (stereo not given), with 8.30; and `COc1cc2c(cc1OC)C(=O)C(CC1(F)CCN(Cc3ccc(F)cc3F)CC1)C2` (stereo not given), with 8.46.

In the next series the target is T2, Acetylcholinesterase (Rattus norvegicus, UniProt P37136).
T2 sequence (P37136 whole entry): T1 sequence (whole entry)
The experiment in a line: Inhibition of rat cortex homogenate acetylcholinesterase using acetylthiocholine iodide as substrate incubated for 20 mins by Ellman's method. It counts as tissue-based.
Settings: not given
For `COc1cc2c(cc1OC)C(=O)C(CC1(F)CCN(CCc3ccc(F)cc3)CC1)C2` (stereo not given), the pIC50 is 6.39.
Same read-out and setting: the same measure for `COc1cc2c(cc1OCC1CC1)C(=O)C(CC1(F)CCN(Cc3ccc(F)cc3)CC1)C2` (stereo not given): 8.27.
Turning to `COc1ccc2c(c1)CC(CC1(F)CCN(Cc3ccccc3F)CC1)C2=O` (stereo not given), the pIC50 was 8.20.
The same measure, in the same setting: then `COc1cc2c(cc1OC)C(=O)C(CC1(F)CCN(Cc3ccccc3C(F)(F)F)CC1)C2` (stereo not given), with 5.79; and `COc1ccc2c(c1)C(=O)C(CC1(F)CCN(Cc3ccccc3F)CC1)C2` (stereo not given), with 7.22; and `CCCCOc1cc2c(cc1OCCCC)C(=O)C(CC1(F)CCN(Cc3cccc(F)c3)CC1)C2` (stereo not given), with 6.19.
The same measure, in the same setting: the same measure for `COc1ccc2c(c1)CC(CC1(F)CCN(Cc3cccc(F)c3)CC1)C2=O` (stereo not given): 7.85.
Same read-out and setting: then `CCCCOc1cc2c(cc1OCCCC)C(=O)C(CC1(F)CCN(Cc3ccccc3F)CC1)C2` (stereo not given), with 6.74; and `COc1cc2c(cc1OCC1CC1)C(=O)C(CC1(F)CCN(Cc3cccc(F)c3)CC1)C2` (stereo not given), with 8.23.
In turn, `COc1cc2c(cc1OC)C(=O)C(CC1(F)CCN(Cc3ccc(F)c(F)c3F)CC1)C2` (stereo not given) showed a negative-log IC50 (pIC50) of 7.12. Compared with the last molecule, the pIC50 is 1.11 log units lower.
Still for that read-out and setting: the same measure for `COc1cc2c(cc1OC)C(=O)C(CC1(F)CCN(Cc3cc(F)cc(F)c3F)CC1)C2` (stereo not given): 6.51; for `COc1cc2c(cc1OC)C(=O)C(CC1(F)CCN(Cc3cccc(C#N)c3)CC1)C2` (stereo not given): 7.17.
On the same count and under the same terms, then `COc1cc2c(cc1F)CC(CC1(F)CCN(Cc3ccccc3F)CC1)C2=O` (stereo not given), with 7.65; and `COc1cc2c(cc1OCC1CC1)C(=O)C(CC1(F)CCN(Cc3ccc(F)cc3F)CC1)C2` (stereo not given), with 8.34; and `CCCOc1cc2c(cc1OC)CC(CC1(F)CCN(Cc3ccccc3F)CC1)C2=O` (stereo not given), with 7.60.
The same measure, in the same setting: the same measure for `CCCOc1cc2c(cc1OCCC)C(=O)C(CC1(F)CCN(Cc3ccccc3F)CC1)C2` (stereo not given): 7.18; for `COc1cc2c(cc1OC)C(=O)C(CC1(F)CCN(Cc3cccc(F)c3)CC1)C2` (stereo not given): 8.52.
In the case of `COc1cc2c(cc1F)C(=O)C(CC1(F)CCN(Cc3ccccc3F)CC1)C2` (stereo not given), the pIC50 is 8.45.
In turn, `COc1cc2c(cc1OC)C(=O)C(CC1(F)CCN(Cc3ccc(F)cc3F)CC1)C2` (stereo not given) showed a negative-log IC50 (pIC50) of 8.08. This pIC50 lies 0.37 log units lower than the previous one.
The same measure, in the same setting: the same measure for `COc1cc2c(cc1F)C(=O)C(CC1(F)CCN(Cc3cccc(F)c3)CC1)C2` (stereo not given): 8.43; for `COc1cc2c(cc1F)C(=O)C(CC1(F)CCN(Cc3ccc(F)cc3)CC1)C2` (stereo not given): 8.46.
`COc1cc2c(cc1OC)C(=O)C(CC1(F)CCN(Cc3cccc(C)c3)CC1)C2` (stereo not given) showed a pIC50 of 7.93.
With `COc1cc2c(cc1OC)C(=O)C(CC1(F)CCN(Cc3cccc(C(F)(F)F)c3)CC1)C2` (stereo not given), the pIC50 is 6.46. Compared with the last molecule, the pIC50 is 1.47 log units lower.
Same read-out and setting: the same measure for `COc1cc2c(cc1OC)C(=O)C(CC1(F)CCN(Cc3cc(F)cc(F)c3)CC1)C2` (stereo not given): 6.65.
Still for that read-out and setting: then `COc1cc2c(cc1F)CC(CC1(F)CCN(Cc3cccc(F)c3)CC1)C2=O` (stereo not given), with 7.35.
On the same count and under the same terms, then `COc1cc2c(cc1OC)C(=O)C(CC1(F)CCN(Cc3ccccc3C#N)CC1)C2` (stereo not given), with 6.79.
`COc1ccc2c(c1)C(=O)C(CC1(F)CCN(Cc3ccc(F)cc3)CC1)C2` (stereo not given) had a pIC50 of 6.59.
In turn, `COc1cc2c(cc1F)CC(CC1(F)CCN(Cc3ccc(F)cc3)CC1)C2=O` (stereo not given) gave a pIC50 of 7.55.
Same read-out and setting: then `CCCOc1cc2c(cc1OCCC)C(=O)C(CC1(F)CCN(Cc3cccc(F)c3)CC1)C2` (stereo not given), with 6.75; and `COc1cc2c(cc1OC)C(=O)C(CC1(F)CCN(CCc3cccc(F)c3)CC1)C2` (stereo not given), with 7.23.
The same measure, in the same setting: then `CCCOc1cc2c(cc1OC)CC(CC1(F)CCN(Cc3ccc(F)cc3)CC1)C2=O` (stereo not given), with 7.74.

The values above are taken from ChEMBL document CHEMBL4813953, “Kinetics-Driven Drug Design Strategy for Next-Generation Acetylcholinesterase Inhibitors to Clinical Candidate” (J Med Chem, 2021).
